Data taken from ChEMBL document CHEMBL1133952, “Identification of E2F-1/Cyclin A antagonists” (Bioorg Med Chem Lett, 2001).
pIC50: −log10 of the molar value. Residues, ends and D or L forms follow the SMILES beside them. *: point of attachment. Cyclohexanecarbonyl = O=C(C1CCCCC1)*; Cyclopentanecarbonyl = O=C(C1CCCC1)*; Cyclopropanecarbonyl = O=C(C1CC1)*; Isobutyryl = CC(C)C(=O)*; Piv = CC(C)(C)C(=O)*; Propionyl = CCC(=O)*; Bz = O=C(c1ccccc1)*

Assay: In vitro inhibitory activity against E2F-1/Cyclin A was determined using ELISA assay

First: CC(C)C[C@H](NC(=O)[C@H](CC(=O)O)NC(=O)[C@H](CC(C)C)NC(=O)[C@H](CCCN=C(N)N)NC(=O)[C@H](CCCN=C(N)N)NC(=O)[C@H](CCCCN)NC(=O)[C@@H](NC(=O)[C@@H]1CCCN1)C(C)C)C(=O)O
Second: CC(=O)N1CCC[C@H]1C(=O)N[C@H](C(=O)N[C@@H](CCCCN)C(=O)N[C@@H](CCCN=C(N)N)C(=O)N[C@@H](CCCCN)C(=O)N[C@@H](CC(C)C)C(=O)N[C@H](Cc1ccccc1)C(=O)NCC(=O)O)C(C)C
The pIC50 of the first is 0.40 log units higher: 7.00 for the first, 6.60 for the second.

Compared with `CC(=O)N1CCC[C@H]1C(=O)N[C@H](C(=O)N[C@@H](CCCCN)C(=O)N[C@@H](CCCN=C(N)N)C(=O)N[C@H](CCCCN)C(=O)N[C@@H](CC(C)C)C(=O)N[C@@H](Cc1ccccc1)C(=O)NCC(=O)O)C(C)C`, `CC(=O)N[C@@H](CCCN=C(N)N)C(=O)N[C@@H](CCCCN)C(=O)N[C@@H](CC(C)C)C(=O)N[C@@H](Cc1ccccc1)C(=O)NCC(=O)O` is 0.78 log units lower in pIC50: 5.30 for the first, 4.52 for the second. The first is the more potent here.

First: CC(=O)N1CCC[C@H]1C(=O)N[C@H](C(=O)N[C@@H](CCCCN)C(=O)N[C@@H](CCCN=C(N)N)C(=O)N[C@@H](CCCCN)C(=O)N[C@@H](CC(C)C)C(=O)N[C@@H](Cc1ccccc1)C(=O)NCC(=O)O)C(C)C
Second: CC(=O)N1CCC[C@H]1C(=O)N[C@H](C(=O)N[C@@H](CCCCN)C(=O)N[C@H](CCCN=C(N)N)C(=O)N[C@@H](CCCCN)C(=O)N[C@@H](CC(C)C)C(=O)N[C@@H](Cc1ccccc1)C(=O)NCC(=O)O)C(C)C
The pIC50 of the first is 2.65 log units higher: 7.00 for the first, 4.35 for the second. The first is the more potent here.

Compared with `CC(=O)N[C@@H](CCCCN)C(=O)N[C@@H](CC(C)C)C(=O)N[C@@H](Cc1ccccc1)C(=O)NCC(=O)O` (Ac-KLFG-OH), `CC(C)C[C@H](NC(=O)[C@H](CCCCN)NC(=O)[C@H](CCCN=C(N)N)NC(=O)[C@H](CCCCN)NC(=O)c1ccccc1)C(=O)N[C@@H](Cc1ccccc1)C(=O)NCC(=O)O` (Bz-KRKLFG-OH) is 1.47 log units higher in pIC50: 4.35 for the first, 5.82 for the second.

`CC(C)C[C@H](NC(=O)[C@H](CCCCN)NC(=O)[C@H](CCCN=C(N)N)NC(=O)[C@H](CCCCN)NC(=O)C1CCCCC1)C(=O)N[C@@H](Cc1ccccc1)C(=O)NCC(=O)O` (Cyclohexanecarbonyl-KRKLFG-OH) and `CC(C)C[C@H](NC(=O)[C@H](CCCCN)NC(=O)[C@H](CCCN=C(N)N)NC(=O)[C@H](CCCCN)NC(=O)C1CCCC1)C(=O)N[C@@H](Cc1ccccc1)C(=O)NCC(=O)O` (Cyclopentanecarbonyl-KRKLFG-OH) are within 0.2 log units of each other in pIC50: 6.35 for the first, 6.46 for the second.

`CC(C)C[C@H](NC(=O)[C@H](CCCCN)NC(=O)[C@H](CCCN=C(N)N)NC(=O)[C@H](CCCCN)NC(=O)C1CC1)C(=O)N[C@@H](Cc1ccccc1)C(=O)NCC(=O)O` (Cyclopropanecarbonyl-KRKLFG-OH) and `CC(C)C[C@H](NC(=O)[C@H](CCCCN)NC(=O)[C@H](CCCN=C(N)N)NC(=O)[C@H](CCCCN)NC(=O)C(C)C)C(=O)N[C@@H](Cc1ccccc1)C(=O)NCC(=O)O` (Isobutyryl-KRKLFG-OH) are the same in pIC50: 6.82 for the first, 6.82 for the second.

Going from `CC(C)C[C@H](NC(=O)[C@H](CCCCN)NC(=O)[C@H](CCCN=C(N)N)NC(=O)[C@H](CCCCN)NC(=O)C(C)(C)C)C(=O)N[C@@H](Cc1ccccc1)C(=O)NCC(=O)O` (Piv-KRKLFG-OH) to `CCC(=O)N[C@@H](CCCCN)C(=O)N[C@@H](CCCN=C(N)N)C(=O)N[C@@H](CCCCN)C(=O)N[C@@H](CC(C)C)C(=O)N[C@@H](Cc1ccccc1)C(=O)NCC(=O)O` (Propionyl-KRKLFG-OH), the pIC50 falls from 6.82 to 6.35 (0.47 log units). The first is the more potent here.

`CC(C)C[C@H](NC(=O)[C@H](CC(N)=O)NC(=O)[C@H](CCCN=C(N)N)NC(=O)C(CS)NC(=O)[C@H](C)NC(=O)C(N)CO)C(=O)N[C@@H](Cc1ccccc1)C(=O)NCC(=O)O` (single isomer, unassigned) and Ac-AKRKLFG-OH are the same in pIC50: 6.70 for the first, 6.70 for the second.

First: Ac-KRKLFG-OH
Second: H-PAKRKLFG-OH
The pIC50 of the first is 1.00 log units lower: 6.00 for the first, 7.00 for the second.

For H-PVKARADL-OH, the pIC50 was < 4.00.
